# Laboratory results as given in patent US9464135B2, “Epithelial membrane protein-2 (EMP2) and proliferative vitroretinopathy (PVR)” (THE REGENTS OF THE UNIVERSITY OF CALIFORNIA, priority 2009, dated 2016).
# Assays:
# Assay type in all cases: cell-based, human
# ARPE-19 cells [1] = assay: Collagen gel contraction assay, ARPE-19 cells; details: 1 hour pretreatment, normalized to vehicle control, read-out: concentration required to achieve 50% inhibition of the gel contraction
# Procedure: EMP2 diabody was recombinantly constructed using a phage library to select for reactivity against a human EMP2 peptide. […] Toxicity, adhesion, and migration were assessed respectively through flow cytometry using Annexin V, binding to collagen type 1, and a wound healing assay. Collagen gel contraction was assessed using an in vitro assay.
# (§1) Collagen gel contraction assays were performed as previously reported (Morales S A et al., Exp Eye Res, 85(6):790-798 (2007)). Briefly, collagen gels were prepared by combining collagen type I (BD Biosciences) 10×DMEM, and DMEM/F12. The final concentration of the collagen type I mixture was 2.5 mg/mL. The collagen solution (500 μL) was added to each well of a 24-well plate and incubated at 37° C. in 5% CO2 for 1 hour. Cultured ARPE-19 cell with modified EMP2 levels were harvested and resuspended in serum-free DMEM/F12 at a final concentration of 5×10^5/mL. ARPE-19 cells with modified EMP2 levels were seeded onto the collagen gel at a concentration of 2.5×10^5 cells per well and the percentage of contraction was measured at 24 hours. The area of the each gel was obtained by taking a picture of the gel using image capture (Gel Doc 2000; Bio-Rad, Hercules, Calif.) and quantified with NIH Image J (developed by Wayne Rasband, National Institutes of Health, Bethesda, Md.; available at http://rsb.info.nih.gov/ij/index.html). […]
# ARPE-19/EMP2 cells = assay: Collagen gel contraction assay, ARPE-19/EMP2 cells; details: overexpressing ARPE-19/EMP2 cells; 1 hour pretreatment; normalized to vehicle control; read-out: concentration required to achieve 50% inhibition of the gel contraction
# Procedure: as §1
# (§2) Collagen gels were prepared with collagen type I (BD Biosciences) in DMEM/F12 at a final concentration of 2.5 mg/mL. […] ARPE-19, ARPE-19/EMP2, and ARPE-19/EMP2 siRNA cells were seeded onto the collagen gels at a concentration of 2.5×10^5 cells per well and the percentage of contraction was measured at specific time intervals. […]
# ARPE-19/EMP2 siRNA cells = assay: Collagen gel contraction assay, ARPE-19/EMP2 siRNA cells; details: 1 hour pretreatment, normalized to vehicle control, read-out: concentration required to achieve 50% inhibition of the gel contraction
# Procedure: as §1, §2
# ARPE-19 cells [2] = assay: Migration assay (scratch wound closure); details: 50 ng/mL PDGF, 24 hours
# Procedure: ARPE-19 and ARPE-19/EMP2 cells were seeded onto a 24-well plate and incubated for 3 days until cells reached confluence. The cells were washed with PBS, serum-free medium was added, and the cells were incubated overnight. A 10 μL pipette tip was used to make a scratch in the monolayer and the medium was removed and replaced with serum-free medium or serum-free medium that contained 50 ng/mL PDGF. Pictures of the wound were taken at various time points, and the percentage closure of the scratch was quantified with NIH Image J software. The area of the scratch was measured immediately after the wound was created. Over time, cells migrated into the cleared area; however, a gap was still visible after 24 hours. The gap size was measured and divided by the original scratch size, and this value was expressed as percentage closure.
# [3] = test system: ARPE-19 and ARPE-19/EMP2 cells; assay: Collagen production (Sircol Collagen Assay); details: 10 ng/mL TGF-β, 72 hours, serum-free medium; compared with untreated condition
# Procedure: ARPE-19 and ARPE-19/EMP2 cells were seeded onto a six-well plate at a concentration of 7×10^5 cells/mL in serum-free medium in the presence or absence of 10 ng/mL […]. The medium was collected after 72 hours. Secreted collagen was measured (Sircol Collagen Assay; Accurate Chemical & Scientific, Westbury, N.Y.). The collagen assay is a colorimetric procedure. The reaction product was quantified with the microplate reader at a wavelength of 540 nm. Each experiment included at least six replicates, and at least three independent experiments were performed. A Student's t-test (unpaired, one-tail) was used. P<0.05 was judged to be statistically significant.
molecule,measurement,setting,value
CC(C)(C)n1nc(-c2ccc(Cl)cc2)c2c(N)ncnc21 [PP2],IC50,ARPE-19 cells [1],2.5 µM
same,IC50,ARPE-19/EMP2 cells,5 µM
same,IC50,ARPE-19/EMP2 siRNA cells,< 1 µM
PDGF,wound closure,ARPE-19 cells [2],stimulated wound closure
TGF-β,collagen production,[3],increased collagen production
